Species: Rattus norvegicus
Experiment: Open TG-GATES - Regimen: Single
Assay type: toxicity, organism-based, Sprague-Dawley
Design: regimen Single, gender Male, age 6 weeks
Conditions: in vivo, po, 0 mg/kg, route gavage, dose level Control; for APTT / Bas / Eos / Fbg / Hb / Ht / Lym / MCH / MCHC / MCV / Mono / Neu / PT / Plat / RBC / Ret / WBC: tissue Blood; for KIDNEY_L / KIDNEY_R / KIDNEY_TOTAL: tissue Kidney; for LIVER: tissue Liver; for A/G / ALP / ALT / AST / BUN / CRE / Ca / Cl / DBIL / GLC / IP / K / LDH / Na / PL / RALB / TBIL / TC / TG / TP / gamma-GTP: tissue Plasma

Compound CC1=C(CC(=O)O)c2cc(F)ccc2/C1=C\c1ccc([S+](C)[O-])cc1 (configuration not stated) has a TERMINAL_BW (3 h) of 203.6 g, an APTT (3 h) of 20.8 s and a Bas (3 h) of 0.2%. For the same compound, the Eos (3 h) was 0.8%, the Fbg (3 h) was 275 mg/dL and the Hb (3 h) was 13.9 g/dL. The Ht (3 h) was 42%, the Lym (3 h) was 77.4% and the MCH (3 h) was 21.5 pg. The MCHC (3 h) was 33.1%, the MCV (3 h) was 65.1 fL and the Mono (3 h) was 2.8%. For the same compound, the Neu (3 h) was 18.6%, the PT (3 h) was 14.2 s and the Plat (3 h) was 116.8 x10_4/uL. It also gave an RBC (3 h) of 645.6 x10_4/ul, a Ret (3 h) of 7.9% and a WBC (3 h) of 80.3 x10_2/uL. For the same compound, the KIDNEY_L (3 h) was 0.8 g, the KIDNEY_R (3 h) was 0.9 g and the KIDNEY_TOTAL (3 h) was 1.7 g. For the same compound, the LIVER (3 h) was 9.3 g, the A/G (3 h) was 0.9 and the ALP (3 h) was 1495.6 IU/L. It also gave an ALT (3 h) of 41.6 IU/L, an AST (3 h) of 79.8 IU/L and a BUN (3 h) of 10.4 mg/dL. For the same compound, the CRE (3 h) was 0.2 mg/dL, the Ca (3 h) was 10.9 mg/dL and the Cl (3 h) was 105.4 meq/L. For the same compound, the DBIL (3 h) was 0.01 mg/dL, the GLC (3 h) was 168 mg/dL and the IP (3 h) was 8.7 mg/dL. It also gave a K (3 h) of 3.9 meq/L, an LDH (3 h) of 79.6 IU/L and a Na (3 h) of 142.4 meq/L. The PL (3 h) was 150.6 mg/dL, the RALB (3 h) was 2.6 g/dL and the TBIL (3 h) was 0.024 mg/dL. It also gave a TC (3 h) of 80.8 mg/dL, a TG (3 h) of 65.4 mg/dL and a TP (3 h) of 5.4 g/dL. For the same compound, the gamma-GTP (3 h) was 1 IU/L, the TERMINAL_BW (6 h) was 197.1 g and the APTT (6 h) was 17.8 s. For the same compound, the Bas (6 h) was 0%, the Eos (6 h) was 1% and the Fbg (6 h) was 281.8 mg/dL. For the same compound, the Hb (6 h) was 13.8 g/dL, the Ht (6 h) was 42.2% and the Lym (6 h) was 78.6%. The MCH (6 h) was 20.7 pg, the MCHC (6 h) was 32.8% and the MCV (6 h) was 62.9 fL. For the same compound, the Mono (6 h) was 2.8%, the Neu (6 h) was 17% and the PT (6 h) was 14.2 s. The Plat (6 h) was 121.9 x10_4/uL, the RBC (6 h) was 670.4 x10_4/ul and the Ret (6 h) was 7.7%. It also gave a WBC (6 h) of 78.4 x10_2/uL, a KIDNEY_L (6 h) of 0.8 g and a KIDNEY_R (6 h) of 0.9 g. It also gave a KIDNEY_TOTAL (6 h) of 1.7 g, an LIVER (6 h) of 8 g and an A/G (6 h) of 0.9. For the same compound, the ALP (6 h) was 1387.6 IU/L, the ALT (6 h) was 38.2 IU/L and the AST (6 h) was 72 IU/L. The BUN (6 h) was 7.4 mg/dL, the CRE (6 h) was 0.2 mg/dL and the Ca (6 h) was 10.6 mg/dL. The Cl (6 h) was 106.4 meq/L, the DBIL (6 h) was 0.002 mg/dL and the GLC (6 h) was 171.8 mg/dL. For the same compound, the IP (6 h) was 9.5 mg/dL, the K (6 h) was 4.1 meq/L and the LDH (6 h) was 71.6 IU/L. It also gave a Na (6 h) of 142 meq/L, a PL (6 h) of 142 mg/dL and an RALB (6 h) of 2.5 g/dL. For the same compound, the TBIL (6 h) was 0.03 mg/dL, the TC (6 h) was 83.6 mg/dL and the TG (6 h) was 37.4 mg/dL. For the same compound, the TP (6 h) was 5.2 g/dL, the gamma-GTP (6 h) was 1.6 IU/L and the TERMINAL_BW (9 h) was 198.3 g. It also gave an APTT (9 h) of 16.6 s, a Bas (9 h) of 0% and an Eos (9 h) of 0.8%. For the same compound, the Fbg (9 h) was 308.8 mg/dL, the Hb (9 h) was 13.9 g/dL and the Ht (9 h) was 42.5%. The Lym (9 h) was 81.6%, the MCH (9 h) was 21.1 pg and the MCHC (9 h) was 32.7%. It also gave an MCV (9 h) of 64.8 fL, a Mono (9 h) of 2% and a Neu (9 h) of 15%. The PT (9 h) was 13.8 s, the Plat (9 h) was 120.2 x10_4/uL and the RBC (9 h) was 655.8 x10_4/ul. For the same compound, the Ret (9 h) was 7.7%, the WBC (9 h) was 58.8 x10_2/uL and the KIDNEY_L (9 h) was 0.9 g. It also gave a KIDNEY_R (9 h) of 0.9 g, a KIDNEY_TOTAL (9 h) of 1.9 g and an LIVER (9 h) of 7.9 g. For the same compound, the A/G (9 h) was 1, the ALP (9 h) was 1678 IU/L and the ALT (9 h) was 36.8 IU/L. It also gave an AST (9 h) of 70 IU/L, a BUN (9 h) of 10 mg/dL and a CRE (9 h) of 0.2 mg/dL. The Ca (9 h) was 10.6 mg/dL, the Cl (9 h) was 107.8 meq/L and the DBIL (9 h) was 0.004 mg/dL. For the same compound, the GLC (9 h) was 182 mg/dL, the IP (9 h) was 10.1 mg/dL and the K (9 h) was 4.3 meq/L. For the same compound, the LDH (9 h) was 65.6 IU/L, the Na (9 h) was 142.4 meq/L and the PL (9 h) was 142 mg/dL. For the same compound, the RALB (9 h) was 2.6 g/dL, the TBIL (9 h) was 0.03 mg/dL and the TC (9 h) was 83 mg/dL. It also gave a TG (9 h) of 47.6 mg/dL, a TP (9 h) of 5.3 g/dL and a gamma-GTP (9 h) of 1 IU/L. It also gave a TERMINAL_BW (24 h) of 215.3 g, an APTT (24 h) of 16 s and a Bas (24 h) of 0%. The Eos (24 h) was 1%, the Fbg (24 h) was 292.8 mg/dL and the Hb (24 h) was 13.7 g/dL. It also gave a Ht (24 h) of 42.7%, a Lym (24 h) of 77.6% and an MCH (24 h) of 21 pg. It also gave an MCHC (24 h) of 32.2%, an MCV (24 h) of 65.2 fL and a Mono (24 h) of 2.8%. For the same compound, the Neu (24 h) was 18.2%, the PT (24 h) was 13.7 s and the Plat (24 h) was 140.1 x10_4/uL. For the same compound, the RBC (24 h) was 654.6 x10_4/ul, the Ret (24 h) was 7.3% and the WBC (24 h) was 87.2 x10_2/uL. For the same compound, the KIDNEY_L (24 h) was 0.9 g, the KIDNEY_R (24 h) was 0.9 g and the KIDNEY_TOTAL (24 h) was 1.8 g. The LIVER (24 h) was 9.8 g, the A/G (24 h) was 0.9 and the ALP (24 h) was 1542 IU/L. The ALT (24 h) was 49 IU/L, the AST (24 h) was 74 IU/L and the BUN (24 h) was 13.2 mg/dL. It also gave a CRE (24 h) of 0.2 mg/dL, a Ca (24 h) of 11 mg/dL and a Cl (24 h) of 106.4 meq/L. For the same compound, the DBIL (24 h) was 0.01 mg/dL, the GLC (24 h) was 182.6 mg/dL and the IP (24 h) was 7.3 mg/dL. The K (24 h) was 4.1 meq/L, the LDH (24 h) was 75 IU/L and the Na (24 h) was 142.2 meq/L. It also gave a PL (24 h) of 153 mg/dL, an RALB (24 h) of 2.7 g/dL and a TBIL (24 h) of 0.02 mg/dL. It also gave a TC (24 h) of 83.2 mg/dL, a TG (24 h) of 82.2 mg/dL and a TP (24 h) of 5.5 g/dL. The gamma-GTP (24 h) was 1 IU/L.

From ChEMBL document CHEMBL3885861, “Open TG-GATES”
